# In publication PMC4932848 (Biochemistry, 2012):
# Target: T1, hUXS (human UDP-α-D-xylose synthase) (Homo sapiens, UniProt Q8NBZ7)
# T1 sequence (Q8NBZ7 85-420): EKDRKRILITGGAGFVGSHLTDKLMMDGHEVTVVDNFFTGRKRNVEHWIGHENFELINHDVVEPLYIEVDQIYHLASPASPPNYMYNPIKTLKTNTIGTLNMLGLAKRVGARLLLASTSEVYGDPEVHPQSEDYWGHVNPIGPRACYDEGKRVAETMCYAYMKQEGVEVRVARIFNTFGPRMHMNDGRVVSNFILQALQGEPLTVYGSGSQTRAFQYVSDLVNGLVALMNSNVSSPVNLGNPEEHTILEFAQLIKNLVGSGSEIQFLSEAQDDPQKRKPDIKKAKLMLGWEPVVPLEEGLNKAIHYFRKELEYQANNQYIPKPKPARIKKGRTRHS
# Assay: X-ray crystal structure, […] Å
# Format: binding
# Details: copurified NAD+ bound, open conformation, no nucleotide sugar
compound,measurement,value
NC(=O)c1ccc[n+]([C@@H]2O[C@H](COP(=O)(O)OP(=O)(O)OC[C@H]3O[C@@H](n4cnc5c(N)ncnc54)[C@H](O)[C@@H]3O)[C@@H](O)[C@H]2O)c1 [NAD^+],"X-ray crystal structure, 2.5 Å",Recombinant hUXS crystallizes with the copurified NAD^+ cofactor bound
